These results are taken from patent US5618726A, “Biodegradable azo dyes” (priority 1994, dated 1997).

The subject of data set [1] is lignin peroxidase (ligninase, LiP). The data set can be described thus: Oxidation of azo dyes and veratryl alcohol by pure lignin peroxidase. The settings on record: for Oxidation by ligninase after VA was added: with veratryl alcohol; for Oxidation by ligninase without VA: without veratryl alcohol. In kind it is biochemical, Phanerochaete chrysosporium. How it is done: Lignin peroxidase activity was determined spectrophotometrically at room temperature with VA as substrate. One unit (U) of enzyme activity was defined as 1 μmole of veratryl aldehyde formed-per-min at pH 3. Simultaneous oxidations of azo dyes and veratryl alcohol were measured using a Hewlett-Packard 8452 diode array spectrophotometer operated in the kinetic mode by a Vectra PC equipped with MS™-DO/UV-VIS software. Azo dye concentrations were determined by measuring absorbances at appropriate maxima.
After six days of growth, when the specific activity of ligninase reached about 250 U-per-liter, culture filtrates were separated from mycelial debris by filtration. One liter of culture filtrate was concentrated to about 10 ml using an Amicon PM-10 membrane and desalted in 10 mM sodium acetate buffer (pH 6) using a Sephadex G25 NAP10 column. Ligninase isoenzyme was separated from Mn-dependent peroxidases using a Pharmacia fast protein liquid chromatography system equipped with a Mono Q HR 5/5 column. In this study isoforms H2 and H8 were used.
In vitro studies were limited to dyes 24 and 28. […] FIGS. 6A and 7A show the simultaneous oxidation of azo dyes 24 and 28, respectively, and VA by ligninase. Without VA, azo dye oxidation was limited and terminated more rapidly than in the presence of VA (FIGS. 6B and 7B). When a dye was present in a reaction mixture, the rate of VA oxidation decreased due to an apparent competition for LiPI between these two compounds. The oxidation rate of VA recovered when the azo dye oxidation was completed (FIG. 8). The maximal rate of VA oxidation was about 159 AU (absorption change per-min-per-ml of ligninase solution). Wavelengths of 310 nm for VA, 506 nm for dye 24, and 430 nm for dye 28 oxidations were used in monitoring substrate removal. The oxidation of azo dyes is stimulated by VA in high (200 μM) and low (20 μM) H2 O2 concentrations.

For data set [2], the target named is T1, horseradish peroxidase type II (Armoracia rusticana, UniProt P00433).
T1 sequence (P00433 31-338): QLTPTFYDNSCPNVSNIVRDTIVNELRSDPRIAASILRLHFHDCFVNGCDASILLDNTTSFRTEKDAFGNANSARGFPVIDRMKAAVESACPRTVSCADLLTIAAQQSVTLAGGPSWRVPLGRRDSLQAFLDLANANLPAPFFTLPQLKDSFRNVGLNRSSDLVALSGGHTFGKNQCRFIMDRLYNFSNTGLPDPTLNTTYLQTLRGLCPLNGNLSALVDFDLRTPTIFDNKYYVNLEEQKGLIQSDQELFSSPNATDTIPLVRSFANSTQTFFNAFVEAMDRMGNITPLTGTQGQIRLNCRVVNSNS
The data set can be described thus: Oxidation of azo dyes by horseradish peroxidase preparation. In kind it is biochemical. The settings on record: pH 8, 37° C., H2O2. How it is done: The reaction was started with the addition of 100 μl of 50 mM H2 O2 and was followed for 1 min at 37° C. Controls were run with no addition of H2 O2 or with the addition of the hemeperoxidase inhibitor KCN (final concentration 25 μM).

Data set [3] deals with S. chromofuscus A11 extracellular peroxidase. The data set can be described thus: Oxidation of azo dyes by S. chromofuscus A11 crude enzyme preparation. The format is biochemical, Streptomyces chromofuscus A11. The settings on record: pH 8, 37° C., H2O2. An outline of the steps: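 Enzyme from 48 h S. chromofuscus A11 culture supernatant, concentrated, ammonium sulfate-precipitated, dialyzed in 20 mM HEPES pH 8; yellow Sephadex G-25 fraction used. Reaction started with 100 μl 50 mM H2O2, followed 1 min at 37° C; controls without H2O2 or with 25 μM KCN.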

Another data set relates to Mn(II)-peroxidase. The data set can be described thus: Oxidation of dyes by P. chrysosporium Mn(II)-peroxidase. In kind it is biochemical, Phanerochaete chrysosporium. To be noted: crude enzyme, conditions specific for Mn(II)-peroxidase.
In another data set the test system is ligninase. Put plainly: Oxidation of dyes by P. chrysosporium ligninase (crude preparation). In kind it is biochemical, Phanerochaete chrysosporium. To be noted: crude enzyme, conditions specific for ligninase. An outline of the steps:
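Crude P. chrysosporium ligninase oxidation of dyes, assayed by a previously reported method; conditions as for acid yellow 9, readings every 30 s for up to 15 minutes.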

The test system of another data set is S. diastaticus A12. The format is cell-based. The settings on record: streptomyces diastaticus a12 culture, 336 h. An excerpt: (§1) Microbiol., 1984, 130:2905-2913.
(§2) Replicate sterile controls also were run in each experiment.

A further data set concerns S. diastaticus A13. In kind it is cell-based. To be noted: streptomyces diastaticus a13 culture, 336 h.
Excerpt: as §1, §2

The next data set deals with S. rochei A10. In kind it is cell-based. The settings on record: streptomyces rochei a10 culture, 336 h.
Excerpt: as §1, §2

In another data set the test system is S. chromofuscus A11. The settings on record: streptomyces chromofuscus a11 culture, 336 h. How it is done:
as §1, §2
The Streptomyces were grown on the same media and under the same conditions as previously described. […] Thus, the spectrophotometric assays for substrates 1-12 were carried out at their specific isobastic points. Degradation was calculated as percent of substrates removed from culture broth, considering the evaporation factor (around 10%).

For data set [4], the system named is Phanerochaete chrysosporium. The data set can be described thus: Substrate removal / decolorization by P. chrysosporium culture. To be noted: for % Decolorization, P. chrysosporium: 14 days. The format is cell-based. How it is done:
Environ. Microbiol., 1981, 42:290-296), with the addition of 75 mg adenine (6-aminopurine) and 27 mg L-phenylalanine-per-liter. This addition accelerated the growth of the fungus without inhibiting ligninase activity. […] […] Cultures were incubated at 37° C. for 7 to 15 days with shaking (250 rpm). Solid agar media were also employed.

In data set [5] the test system is P. chrysosporium ligninolytic culture. The format is cell-based, Phanerochaete chrysosporium. The settings on record: ten days of growth; for Dye remaining in the cultures, HPLC / Dye remaining in the cultures, Spectrophotometry: initial 200 mg-per-liter; for Bleaching of cultures: 200 mg-per-liter. How it is done:
Decolorization of dyes in cultures were monitored at their absorption maxima at pH 4.5, or using HPLC. A Spherisorb ODS2 C18 column was used for HPLC analysis with a sequence of DMS buffer at pH 4.5 and acetonitrile as solvents (5 min 100% DMS, 15 min 100% acetonitrile, 18 min 100% acetonitrile, 19 min 100% DMS, 20 min 100% DMS, 5 min postran 100% DMS). Peaks were monitored at 260 and 450 nm. Results from spectrophotometric and HPLC methods were compared.
The initial concentration of dye was 200 mg-per-liter. Numbers represent mg-per-liter of dye remaining in the cultures.

A further data set has as its system soil microflora. The data set can be described thus: Degradation of azo dyes by soil microflora. The settings on record: water from a soil sample; for Dye mineralized by soil microflora: 14CO2 trapped; for Dye transformed by soil microflora: carbon source, air flow. The format is cell-based. How it is done:
The degradation of azo dyes by soil microflora in general was evaluated by forming a mixture of azo dyes 33 and 34 with water from a soil sample. The soil sample contained soil microflora that had not adapted to using azo dyes as substrates. A carbon source was added to the mixture and a continuous air flow through the mixture was maintained. The ^14 CO2 released by the mixture was trapped using a 1N NaOH.

Another data set deals with P. chrysosporium. The data set can be described thus: Mineralization of 14C-labeled dyes by shaken cultures. The format is cell-based, Phanerochaete chrysosporium. How it is done:
(§3) Agitated cultures containing 100,000 to 150,000 dpm of azo dye at a concentration of 200 mg/liter for P. chrysosporium and 50 mg/liter for S. chromofuscus were incubated at 37° C. for 20 days with shaking at 200 rpm. For each mineralization experiment six replicates-per-culture were run for P. chrysosporium and three replicates-per-culture for S. chromofuscus. Each culture flask contained a CO2 trap consisting of a small glass cup connected to the bottom of the rubber stopper. The cup contained 1 ml of 1N NaOH. Samples were taken every 2 days, and after each sampling cultures were flushed with 100% oxygen for 30 s. At the sampling time, the stopper was removed and the NaOH containing trapped CO2 was transferred to a 20-ml scintillation vial, and the cup was then rinsed twice with 1 ml of water. Two ml of rinse water were also transferred to the vial. Finally, 10 ml of Ecolite scintillation cocktail (ICN Biochemicals Inc., Irvine, Calif.) were added to each vial. Vials, after mixing, were stored in the dark for 24 h. The cpm of trapped radioactivity was then determined in a Packard Tri-Carb liquid scintillation analyzer, Model 1500, using the ^14 C quench standards and SIS numbers.
Either a charcoal-containing polyurethane sponge (Bio-Rad Laboratories, Richmond, Calif.) or 2-methoxyethanol was used to trap volatile organic compounds released during mineralization experiments. The sponge (1 cm^3) replaced the 1N NaOH solution in the small glass cap attached to the rubber stopper; other conditions were as before for the ^14 CO2 experiments. For scintillation counting, the charcoal sponges were dissolved in 1 ml of hyamine hydroxide contained in scintillation vials (1M solution in methanol; NEN Research Products, Boston, Mass.) held at 55° C. for 2 h. Ten ml of Ecolite scintillation cocktail were then added and the cpm was measured.
In the second procedure, cultures with CO2 traps were flushed with oxygen for 10 min, and the organic volatiles present were trapped in 10 ml of 2-methoxyethanol mixed with 10 ml Ecolite.
(§4) The removal of radioactivity from the media was determined by measuring the amount of ^14 C label in 0.1 ml of the medium at time 0 and 21 days for each culture. Uninoculated cultures were used as evaporation controls. […] At the end of each mineralization experiment, culture broths were acidified with 5 ml of 1M H3 PO4, fresh 1N NaOH was added to the trap, and the cultures were shaken overnight. No additional releases of ^14 CO2 were observed. The radioactivity assimilated by the cells was measured by solubilizing biomass harvested from each 21-day-old culture in an equal volume of hyamine hydroxide solution. Before solubilization, cells were washed three times with 50 ml of distilled water to remove adsorbed dyes. Ecolite 10 ml was added to the mixture, which was vortexed vigorously. To increase counting efficiency, the solution of biomass-hyamine-scintillation cocktail was further diluted 10 to 20 times with fresh Ecolite before counting.

The subject of data set [6] is Streptomyces chromofuscus. Described as above. The format is cell-based. How it is done: as §3, §4

The structures appear in SMILES notation.

Turning to `COc1ccc(CO)cc1OC` [Veratryl alcohol, 3,4-dimethoxy benzyl alcohol, reference compound], the “Maximal rate of VA oxidation by ligninase” value in data set [1] (absorption change per-min-per-ml of ligninase solution, 310 nm) is “about 159 AU”.
As to `CCN(CC)c1ccc(N=Nc2ccc(S(=O)(=O)O)cc2)cc1` [compound 15], in data set [2], the “Oxidation rate of azo dyes, Horseradish peroxidase” value was 0.12 μmoles per minute per ml. The “Oxidation rate of azo dyes, S. chromofuscus peroxidase” value in data set [3] is reported as 0.17 μmoles per minute per ml. Moreover, the “Oxidation rate of azo dyes, P. chrysosporium Mn-peroxidase” value in the data set on Mn(II)-peroxidase was 0.23 μmoles per minute per ml. The “Oxidation rate of azo dyes, P. chrysosporium Ligninase” value with ligninase stood at 0.75 μmoles per minute per ml. Besides, the “Degradation (%) after Streptomyces cultivation, strain A12” value with S. diastaticus A12 worked out at 1%. For the same molecule, the “Degradation (%) after Streptomyces cultivation, strain A13” value in the data set with S. diastaticus A13 was 1%. Moreover, the “Degradation (%) after Streptomyces cultivation, strain A10” value with S. rochei A10 is reported as 2%. In addition, the “Degradation (%) after Streptomyces cultivation, strain A11” value in the data set on S. chromofuscus A11 is listed as 3%. The “Concentration of substrate after ten days cultivation with P. chrysosporium” value is recorded as 1.901 ppm in data set [4] (beginning concentration 100 ppm), 10.589 ppm in [4] (beginning concentration 150 ppm), 17.931 ppm in data set [4] (beginning concentration 200 ppm) and 17.791 ppm in [4] (beginning concentration 300 ppm). The “% Decolorization, P. chrysosporium” value in data set [4] (initial concn 150 ppm) came out at 38%; in [4] (initial concn 300 ppm) it was 27%.
Consider `O=S(=O)(O)c1ccc(N=Nc2ccc(N=Nc3c(O)ccc4ccccc34)c(S(=O)(=O)O)c2)cc1` [compound 24], for which, in data set [5], the “Dye remaining in the cultures, HPLC” value stood at 4.43 mg-per-liter; the “Dye remaining in the cultures, Spectrophotometry” value is on record as 1.11 mg-per-liter; the “Bleaching of cultures” value is given as “completely bleached”. Further, in data set [1], the “Oxidation by ligninase after VA was added” value is recorded as “total decolorization” and the “Oxidation by ligninase without VA” value is “limited extent”.
The matching figures for `O=C(O)c1nn(-c2ccc(S(=O)(=O)O)cc2)c(O)c1N=Nc1ccc(S(=O)(=O)O)cc1` [compound 28]: 3.00 mg-per-liter, 2.42 mg-per-liter, “completely bleached”, “total decolorization” and “limited extent”.
Consider `Nc1ccc(N=N[14c]2[14cH][14cH][14c](S(=O)(=O)O)[14cH][14cH]2)cc1S(=O)(=O)O` [compound 33], for which, in the data set with soil microflora, the “Dye mineralized by soil microflora” value stood at 1.1% and the “Dye transformed by soil microflora” value came to 3.4%.
As to `COc1cc(N=N[14c]2[14cH][14cH][14c](S(=O)(=O)O)[14cH][14cH]2)ccc1O` [compound 34], in the data set on P. chrysosporium (21 days' growth, 200 mg/liter), the “Percentage of radioactivity recovered in CO2, P. chrysosporium” value is recorded as 25.7%; the “Percentage of radioactivity recovered in biomass (cells), P. chrysosporium” value is 5.2%; the “Percentage of radioactivity removed from the medium, P. chrysosporium” value stood at 31.7%. In addition, in the data set with P. chrysosporium (first 10 days of incubation), the “Mineralization rate relative to dyes 33 and 35” value is reported as “twice as fast”. The “Mineralization by the streptomycetes” value in data set [6] (21-day incubation) is reported as “mineralized”. Further, in data set [6] (21 days growth of S. chromofuscus), the “Radioactivity accounted for by dye absorbed by the cells” value came to 9%. Further, in [6] (21 days' growth, 50 mg/liter), the “Percentage of radioactivity recovered in CO2, Streptomyces chromofuscus” value was around 4% and the “Percentage of radioactivity recovered in biomass (cells), Streptomyces chromofuscus” value came to 4.6%. For the same molecule, in the data set with soil microflora, the “Dye mineralized by soil microflora” value was found to be 14% and the “Dye transformed by soil microflora” value is 46%.
